Source: patent publication US12673947B2 (Cytosinlab Therapeutics Co., Ltd., priority 2020, dated 2026)

Key:
[1] = target: T1, FLT3 (Homo sapiens, UniProt P36888); experiment: FLT3 kinase in vitro inhibitory activity experiment (Caliper mobility shift, conversion rate); assay type: biochemical; details: IC50 class, read-out: Enzyme activity FLT3
T1 construct: purchased Carna 08-145
T1 sequence (P36888 27-993): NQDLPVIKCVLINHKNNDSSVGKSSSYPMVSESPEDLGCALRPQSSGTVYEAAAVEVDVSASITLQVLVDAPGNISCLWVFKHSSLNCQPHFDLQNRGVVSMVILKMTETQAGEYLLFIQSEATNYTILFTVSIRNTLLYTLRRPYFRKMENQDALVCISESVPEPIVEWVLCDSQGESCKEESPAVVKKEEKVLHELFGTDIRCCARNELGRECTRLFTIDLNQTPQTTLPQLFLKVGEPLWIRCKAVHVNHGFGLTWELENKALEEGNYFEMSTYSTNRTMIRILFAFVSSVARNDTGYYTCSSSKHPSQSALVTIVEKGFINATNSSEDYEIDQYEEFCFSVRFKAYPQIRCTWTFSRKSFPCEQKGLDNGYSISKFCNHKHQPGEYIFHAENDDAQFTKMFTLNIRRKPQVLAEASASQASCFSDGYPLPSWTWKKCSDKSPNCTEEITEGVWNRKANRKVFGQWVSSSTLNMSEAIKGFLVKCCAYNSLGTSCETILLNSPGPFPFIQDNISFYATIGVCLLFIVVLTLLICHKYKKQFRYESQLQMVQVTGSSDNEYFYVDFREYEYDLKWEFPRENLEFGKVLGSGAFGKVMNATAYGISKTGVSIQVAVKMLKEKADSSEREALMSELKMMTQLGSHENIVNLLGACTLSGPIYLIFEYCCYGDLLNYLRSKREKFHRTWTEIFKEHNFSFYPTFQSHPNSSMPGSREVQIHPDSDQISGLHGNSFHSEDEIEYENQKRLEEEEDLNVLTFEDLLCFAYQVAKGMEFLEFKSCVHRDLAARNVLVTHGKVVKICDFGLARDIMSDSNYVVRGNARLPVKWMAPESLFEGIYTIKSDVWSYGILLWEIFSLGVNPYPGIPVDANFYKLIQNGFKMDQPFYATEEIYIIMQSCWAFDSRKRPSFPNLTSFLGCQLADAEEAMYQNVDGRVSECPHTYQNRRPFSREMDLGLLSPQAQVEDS
Procedure, shortened: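 FLT3 was pre-incubated with compound for 10 min at room temperature, then the reaction was started with ATP plus Kinase substrate 2 and run 30 min at room temperature before stop solution. Substrate conversion was read by Caliper mobility shift.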

[2] = system: MV4;11 cells; experiment: MV4;11 in vitro inhibition of proliferation assay (CellTiter-Glo, 72 hours); assay type: cell-based; details: Homo sapiens, MV4-11, 72 h, IC50 class, read-out: Inhibitory activity of cell proliferation MV4;11
Procedure, shortened: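 MV4;11 cells in IMDM/10% FBS, 2000 per well, were exposed to 9-point 3-fold DMSO dilutions from 10 uM (final DMSO 0.3%) in triplicate for 72 hours at 37° C., 5% CO2. Viability was read by CellTiter-Glo luminescence, and IC50 came from a four-parameter fit of inhibition.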

Row | IC50 [1] | IC50 [2] | SMILES
1 | ≤ 10 nM | 10 to 100 nM | CCc1nc2c(N)ncc(-c3ccc(N4CCC(N5CC[C@@H](NC)C5)CC4)c(OC)c3)c2nc1NC1CCOCC1 [Compound 323]
2 | ≤ 10 nM | 10 to 100 nM | CCc1nc2c(N)ncc(-c3ccc(N4CCC(N5CC[C@H](NC)C5)CC4)c(OC)c3)c2nc1NC1CCOCC1 [Compound 324]
3 | ≤ 10 nM | 10 to 100 nM | CCc1nc2c(N)ncc(-c3ccc(N4CCC(N5CCN(CC)CC5)CC4)c(OC)c3)c2nc1N[C@H]1CCOC1 [Compound 325]
4 | 10 to 100 nM | 10 to 100 nM | CCc1nc2c(N)ncc(-c3ccc(N4CCC(N5CCN(CCC#N)CC5)CC4)c(OC)c3)c2nc1NC1CCOCC1 [Compound 326]
5 | ≤ 10 nM | 10 to 100 nM | CCc1nc2c(N)ncc(-c3ccc(N4CCC(N5CCC(C)(O)CC5)CC4)c(OC)c3)c2nc1NC1CCOCC1 [Compound 328]
6 | ≤ 10 nM | ≤ 10 nM | CCc1nc2c(N)ncc(-c3cnn(-c4ccc(C(C)(C)O)nc4)c3)c2nc1N[C@@H]1CC[C@H](O)C1 [Compound 329]
7 | ≤ 10 nM | 10 to 100 nM | CCc1nc2c(N)ncc(-c3cnn(-c4ncc(C(C)(C)O)cn4)c3)c2nc1N[C@@H]1CC[C@H](O)C1 [Compound 330]
8 | ≤ 10 nM | ≤ 10 nM | CCc1nc2c(N)ncc(-c3cnn(-c4cnc(C(C)(C)O)nc4)c3)c2nc1N[C@@H]1CC[C@H](O)C1 [Compound 331]
9 | ≤ 10 nM | ≤ 10 nM | CCc1nc2c(N)ncc(-c3cnn(-c4cnc(C(C)(C)O)cn4)c3)c2nc1N[C@@H]1CC[C@H](O)C1 [Compound 332]
10 | ≤ 10 nM | ≤ 10 nM | CCc1nc2c(N)ncc(-c3cnn(-c4ccc(C(C)(C)O)cc4)c3)c2nc1N[C@@H]1CC[C@H](O)C1 [Compound 333]
11 | ≤ 10 nM | ≤ 10 nM | CCc1nc2c(N)ncc(-c3cnn(-c4ncc(C#N)cn4)c3)c2nc1N[C@@H]1CC[C@H](O)C1 [Compound 335]
12 | ≤ 10 nM | ≤ 10 nM | CCc1nc2c(N)ncc(-c3cnn(-c4ccc(C#N)cc4)c3)c2nc1N[C@@H]1CC[C@H](O)C1 [Compound 336]
13 | ≤ 10 nM | 10 to 100 nM | CCc1nc2c(N)ncc(-c3cnn(-c4ccc(C#N)nn4)c3)c2nc1N[C@@H]1CC[C@H](O)C1 [Compound 337]
14 | ≤ 10 nM | ≤ 10 nM | CCc1nc2c(N)ncc(-c3cnn(-c4cnc(C#N)nc4)c3)c2nc1N[C@@H]1CC[C@H](O)C1 [Compound 338]
15 | ≤ 10 nM | 10 to 100 nM | CCc1nc2c(N)ncc(-c3cnn(-c4cnc(C#N)cn4)c3)c2nc1N[C@@H]1CC[C@H](O)C1 [Compound 339]
16 | ≤ 10 nM | 10 to 100 nM | CCc1nc2c(N)ncc(-c3cnn(-c4ccc(C(F)F)nc4)c3)c2nc1N[C@@H]1CC[C@H](O)C1 [Compound 340]
17 | ≤ 10 nM | ≤ 10 nM | CCc1nc2c(N)ncc(-c3cnn(-c4ncc(F)cn4)c3)c2nc1N[C@@H]1CC[C@H](O)C1 [Compound 341]

Row | IC50 [1] | IC50 [2] | SMILES
18 | ≤ 10 nM | 10 to 100 nM | CCc1nc2c(N)ncc(-c3cnn(-c4ccc(F)c(F)c4)c3)c2nc1N[C@@H]1CC[C@H](O)C1 [Compound 342]
19 | ≤ 10 nM | ≤ 10 nM | CCc1nc2c(N)ncc(-c3cnn(-c4ccnc(F)c4)c3)c2nc1N[C@@H]1CC[C@H](O)C1 [Compound 343]
20 | ≤ 10 nM | ≤ 10 nM | CCc1nc2c(N)ncc(-c3cnn(-c4ncc(OC(C)C)cn4)c3)c2nc1N[C@@H]1CC[C@H](O)C1 [Compound 344]
21 | ≤ 10 nM | ≤ 10 nM | CCc1nc2c(N)ncc(-c3cnn(-c4ccnc(Cl)c4)c3)c2nc1N[C@@H]1CC[C@H](O)C1 [Compound 345]
22 | ≤ 10 nM | 10 to 100 nM | CCc1nc2c(N)ncc(-c3cnn(-c4ncc(C#N)cn4)c3)c2nc1NC1CCOCC1 [Compound 346]
23 | ≤ 10 nM | 10 to 100 nM | CCc1nc2c(N)ncc(-c3cnn(-c4ccc(C(C)(C)O)nc4)c3)c2nc1NC1CCOCC1 [Compound 347]
24 | ≤ 10 nM | 10 to 100 nM | CCc1nc2c(N)ncc(-c3cnn(-c4ncc(C(C)(C)O)cn4)c3)c2nc1NC1CCOCC1 [Compound 348]
25 | ≤ 10 nM | 10 to 100 nM | CCc1nc2c(N)ncc(-c3cnn(-c4cnc(C(C)(C)O)nc4)c3)c2nc1NC1CCOCC1 [Compound 349]
26 | ≤ 10 nM | ≤ 10 nM | CCc1nc2c(N)ncc(-c3cnn(-c4ccc(CNC)cc4)c3)c2nc1NC1CCOCC1 [Compound 350]
27 | ≤ 10 nM | 10 to 100 nM | CCc1nc2c(N)ncc(-c3cnn(-c4ccc(C(C)(C)C)cc4)c3)c2nc1N[C@@H]1CC[C@H](O)C1 [Compound 351]
28 | ≤ 10 nM | 10 to 100 nM | CCc1nc2c(N)ncc(-c3cnn(-c4nccc(C(C)(C)O)n4)c3)c2nc1N[C@@H]1CC[C@H](O)C1 [Compound 352]
29 | ≤ 10 nM | 10 to 100 nM | CCc1nc2c(N)ncc(-c3cnn(-c4ccc(C#N)c(F)c4)c3)c2nc1N[C@@H]1CC[C@H](O)C1 [Compound 353]
30 | ≤ 10 nM | 10 to 100 nM | CCc1nc2c(N)ncc(-c3cnn(-c4ccc(C(C)(C)O)nn4)c3)c2nc1N[C@@H]1CC[C@H](O)C1 [Compound 354]
31 | ≤ 10 nM | ≤ 10 nM | CCc1nc2c(N)ncc(-c3cnn(-c4ccc(C(C)(C)O)c(F)c4)c3)c2nc1N[C@@H]1CC[C@H](O)C1 [Compound 355]
32 | ≤ 10 nM | 10 to 100 nM | CCc1nc2c(N)ncc(-c3cnn(-c4cnc(C(C)(C)O)nc4)c3)c2nc1N[C@@H]1CC[C@@H](O)C1 [Compound 356]
33 | ≤ 10 nM | ≤ 10 nM | CCc1nc2c(N)ncc(-c3cnn(-c4ccc5c(c4)CCO5)c3)c2nc1N[C@@H]1CC[C@H](O)C1 [Compound 357]
34 | 10 to 100 nM | 100 to 500 nM | CCc1nc2c(N)ncc(-c3ccc(NCCNC(=O)[C@H](C)N(C)C(=O)/C=C/CN(C)C)c(OC)c3)c2nc1NC1CCOCC1 [Compound 358, (S,E)-N-(1-((2-((4-(5-amino-3-ethyl-2-((tetrahydro-2H-pyran-4-yl)amino)pyridino[3,4b]pyrazine-8-yl)-2-methoxyphenyl)amino)ethyl)amino)-1-oxopropane-2-yl)-4-(dimethylamino)-N-methylbutyl-2-enamide]

Row | SMILES | IC50 [1] | IC50 [2]
35 | CCc1nc2c(N)ncc(-c3ccc(N4CCC(N5C6CCC5CN(C)C6)CC4)c(OC)c3)c2nc1NC1CCOCC1 [Compound 327, 3-ethyl-8-(3-methoxy-4-(4-(3-methyl-3,8-diazabicyclo[3.2.1]octyl-8-yl)piperidin-1-yl)phenyl)-N2-(tetrahydro-2H-pyran-4-yl)pyridino[3,4-b]pyrazine-2,5-diamine] | ≤ 10 nM | 10 to 100 nM
